# Measurements: the supplement of paper PMC11003180
# Assays:
# Experiment in all cases: drug sensitivity score (DSS) from 5-dose viability curve (DSS (area-based score, 0 = no response)); higher = more sensitive (stronger viability inhibition); extreme values may be limits of the assay
# [1] = tested on: MDCK wild-type + doxycycline; details: doxycycline: 10 ng/mL; 72 h
# How it was run: (§1)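 Parental MDCK cells and MDCK cells with doxycycline-inducible p60AmotL2, both given doxycycline at 10 ng/mL in the medium before plating, were dispensed at 2000 cells/well onto pre-spotted 384-well plates. The plates held an oncology library of 528 drugs at five doses (1-10,000 nM) and were incubated 72 h at 37 °C. Viability was read as CellTiter-Glo luminescence and scaled per plate between vehicle and positive controls. Drug sensitivity scores came from dose-response curve fits in the Breeze pipeline.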
# [2] = tested on: MDCK p60AmotL2-inducible + doxycycline (p60AmotL2 expressing); details: doxycycline: 10 ng/mL; 72 h
# How it was run: as §1
# [3] = tested on: MDCK wild-type - doxycycline; details: doxycycline: none; 72 h
# How it was run: as §1, with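 “without” for “and MDCK cells with doxycycline-inducible p60AmotL2, both given”, “doxycycline” for “doxycycline at 10 ng/mL in the medium before plating,”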
Compound,drug sensitivity score [1],drug sensitivity score [2],drug sensitivity score [3]
O=C(O)c1ccc2c(c1)nc(Nc1cccc(Cl)c1)c1ccncc12 [Silmitasertib],1.4,1.6,0
C[C@H]1C[C@@H]2[C@H]([C@@H](O)C[C@@]3(C)[C@H]2CC[C@]3(O)C(=O)CO)[C@@]2(C)C=CC(=O)C=C12 [Methylprednisolone],0,0,0
CN1CCN(c2ccc(C(=O)Nc3n[nH]c4ccc(Cc5cc(F)cc(F)c5)cc34)c(NC3CCOCC3)c2)CC1 [Entrectinib],0,0.6,0
C=CC(=O)Nc1cccc(Oc2nc(Nc3ccc(N4CCN(C)CC4)cc3)nc3ccsc23)c1 [Olmutinib],0,1.5,0
CN[C@@H]1C[C@H]2O[C@@](C)([C@@H]1OC)n1c3ccccc3c3c4c(c5c6ccccc6n2c5c31)C(=O)N[C@H]4O [UCN-01],18.5,14.5,18.1
CC(C)C[C@H](NC(=O)[C@H](CCc1ccccc1)NC(=O)CN1CCOCC1)C(=O)N[C@@H](Cc1ccccc1)C(=O)N[C@@H](CC(C)C)C(=O)[C@@]1(C)CO1 [Carfilzomib],24.6,25.7,21.2
CCCN(CCC)C(=O)C1=Cc2ccc(-c3ccc(C(=O)N4CCCC4)cc3)cc2N=C(N)C1 [Motolimod],0.8,2.5,0
Cc1c(N)nc([C@H](CC(N)=O)NC[C@H](N)C(N)=O)nc1C(=O)N[C@H](C(=O)N[C@H](C)[C@@H](O)[C@H](C)C(=O)N[C@H](C(=O)NCCc1nc(-c2nc(C(=O)NCCC[S+](C)C)cs2)cs1)[C@@H](C)O)[C@@H](OC1OC(CO)C(O)C(O)C1OC1OC(CO)C(O)C(OC(N)=O)C1O)c1cnc[nH]1 (some centres not stated) [Bleomycin],0,0.6,0
O=C(CCNC(=O)c1ccc(OC(F)(F)F)cc1)N[C@@H]1CCCc2ccccc21 [ML390],14.5,18.3,13.8
Cc1c(C(=O)Nc2ccc(N3C[C@@H](C)O[C@@H](C)C3)nc2)cccc1-c1ccc(OC(F)(F)F)cc1 [Sonidegib],0,0,0.6
O=C(CCCCCCC(=O)Nc1ccc([C@H]2O[C@@H](CSc3nc(-c4ccccc4)c(-c4ccccc4)o3)C[C@@H](c3ccc(CO)cc3)O2)cc1)NO [Tubacin],0,0,0
C=CCc1cccc(/C=N/NC(=O)CN2CCN(Cc3ccccc3)CC2)c1O [PAC-1],4.2,4,2.6
Cn1cnc2c(F)c(Nc3ccc(Br)cc3F)c(C(=O)NOCCO)cc21 [Binimetinib],0,5.3,0
O=C(NCc1ccncc1)C12CC3CC(C1)CC(c1ccc(Cl)cc1)(C3)C2,4.3,6.4,2.4
C=CC(=O)Nc1cccc(Nc2nc(Nc3ccc(OCCOC)cc3)ncc2F)c1 [Spebrutinib],0,0.8,0
N#CC1(c2ccc(NC(=O)c3cccnc3NCc3ccncc3)cc2)CCCC1 [Apatinib],2.7,0,0
CC[C@@H]1C(=O)N(C)c2cnc(Nc3ccc(C(=O)N[C@H]4CC[C@H](N5CCN(CC6CC6)CC5)CC4)cc3OC)nc2N1C(C)C [Volasertib],15.3,17.4,16.6
O=C(c1ccc(C(=O)N2CCC(N3CCCC3)CC2)c(Nc2ccccc2)c1)N1CCC(N2CCCC2)CC1 [UNC1215],0,0,0
Nc1cc(F)ccc1NC(=O)c1ccc(CNC(=O)/C=C/c2cccnc2)cc1 [Tucidinostat],2.4,2.6,0.8
CCN1C(=O)CNc2ncc(-c3ccc(-c4nc[nH]n4)nc3C)nc21 [CC-115],7.8,9.4,8.9
C/C(=C\c1csc(C)n1)[C@@H]1C[C@@H]2O[C@]2(C)CCC[C@H](C)[C@H](O)[C@@H](C)C(=O)C(C)(C)[C@@H](O)CC(=O)N1 [Ixabepilone],5,5,5.4
CCCCCCCCc1ccc(CCC(N)(CO)CO)cc1 [Fingolimod],8.7,6.7,6.7

Compound,drug sensitivity score [1],drug sensitivity score [2],drug sensitivity score [3]
CC/C(=C(\c1ccccc1)c1ccc(OCCN(C)C)cc1)c1ccccc1 [Tamoxifen],0,1,0
Cc1ccc(NS(=O)(=O)c2cccc(C#N)c2)c2[nH]cc(C#N)c12 [E7820],19.9,20.4,14.5
COCC[n+]1c2c(n(Cc3cnccn3)c1C)C(=O)c1ccccc1C2=O [Sepantronium bromide],30.1,34.3,26.6
CCS(=O)(=O)c1cccc(-c2cc(C(=O)NC3CCN(C)CC3)c(C)c3[nH]c4ncc(C)cc4c23)c1 [TAK-901],0.7,1.8,0
NC(=O)NO [Hydroxyurea],0,0,2
CNC(=O)c1ccc(N2C(=S)N(c3cnc(C#N)c(C(F)(F)F)c3)C(=O)C23CCC3)cc1F [Apalutamide],0,0,0
CCCCCCCCCCCCCCCCCCOP(=O)([O-])OC1CC[N+](C)(C)CC1 [Perifosine],0,0,0
Cc1[nH]nc(C(F)(F)F)c1Cc1sc2c(c1C(=O)N1C[C@](C)(O)CO1)c(=O)n(C)c(=O)n2C(C)C [AZD3965],0,4.5,0
CN(C(=O)c1ccc(F)cc1C(F)(F)F)C1CCN(c2nnc(-c3ccnn3C)c3ccccc23)CC1 [Taladegib],0,0,0
CCCCC(=O)OCC(=O)[C@]1(O)Cc2c(O)c3c(c(O)c2[C@@H](O[C@H]2C[C@H](NC(=O)C(F)(F)F)[C@H](O)[C@H](C)O2)C1)C(=O)c1c(OC)cccc1C3=O [Valrubicin],8.8,12.9,5.7
CCN(CC)CCNC(=O)c1c(C)[nH]c(/C=C2\C(=O)Nc3ccc(-c4csc(-c5ccccc5)n4)cc32)c1C [Amcasertib],0,0,0
CC(C)[C@@H](CS(=O)(=O)C(C)C)N1C(=O)[C@@](C)(CC(=O)O)C[C@H](c2cccc(Cl)c2)[C@H]1c1ccc(Cl)cc1 [AMG-232],7.2,9.8,5.9
COc1cc2c(Oc3ccc4[nH]c(C)cc4c3F)ncnc2cc1OCCCN1CCCC1 [Cediranib],0,0.3,0
Cn1cnc2c(F)c(Nc3ccc(Br)cc3Cl)c(C(=O)NOCCO)cc21 [Selumetinib],4.1,10.1,0.9
Clc1ccc(Nc2nnc(Cc3ccncc3)c3ccccc23)cc1 [Vatalanib],0,0,0
CNC(=O)c1ccc(C)c(-n2c(C)cc(OCc3ccc(F)cc3F)c(Br)c2=O)c1,0,0,0
CC1CCC(n2c3cnccc3c3cnc(Nc4ccc5c(n4)CCN(C(=O)CO)C5)nc32)CC1 (configuration not stated) [AMG-925],0,1.3,0
CC(C)n1cnc2c(NCCc3ccc(O)cc3)nc(-c3csc4ccccc34)nc21 [StemRegenin 1],0.9,1.5,2
COc1cc(C)[nH]c(=O)c1CNC(=O)c1c(C)n([C@H](C)C2CCOCC2)c2ccccc12 [CPI-360],0.1,1.3,0
O=C(Nc1nc2cccc(-c3ccc(CN4CCS(=O)(=O)CC4)cc3)n2n1)C1CC1 [Filgotinib],0,0,0
Nc1cc(COc2c(Cl)cc(C[C@H](N)C(=O)O)cc2Cl)c2oc(-c3ccccc3)nc2c1 [JPH203],0,0,0
O=c1ncn2nc(Sc3ccc(F)cc3F)ccc2c1-c1c(Cl)cccc1Cl [Neflamapimod],0,0,0
